Experimental data as given in BindingDB's records for doi:10.1016/j.chembiol.2003.11.012 (Universit&Agrave, 2003).

Legend:
Assay in all cases: Inhibition Assay
Details in all cases: pH 7; 20 °C
[1] = molecular target: Bifunctional dihydrofolate reductase-thymidylate synthase (Leishmania major, UniProt P07382)
Procedure: (§1) The inhibition assay pattern for all of the compounds was determined by steady-state kinetic analysis of the dependence of the TS enzyme activity on folate concentration at various concentration.

Thymidylate synthase [2] = molecular target: Thymidylate synthase (Escherichia coli (strain K12), UniProt P0A884)
Procedure: as §1

Thymidylate synthase [3] = molecular target: Thymidylate synthase (Homo sapiens, UniProt P04818)
Procedure: as §1

Thymidylate synthase [4] = molecular target: T1, Thymidylate synthase (Lacticaseibacillus casei, UniProt P00469)
T1 sequence (P00469 whole entry): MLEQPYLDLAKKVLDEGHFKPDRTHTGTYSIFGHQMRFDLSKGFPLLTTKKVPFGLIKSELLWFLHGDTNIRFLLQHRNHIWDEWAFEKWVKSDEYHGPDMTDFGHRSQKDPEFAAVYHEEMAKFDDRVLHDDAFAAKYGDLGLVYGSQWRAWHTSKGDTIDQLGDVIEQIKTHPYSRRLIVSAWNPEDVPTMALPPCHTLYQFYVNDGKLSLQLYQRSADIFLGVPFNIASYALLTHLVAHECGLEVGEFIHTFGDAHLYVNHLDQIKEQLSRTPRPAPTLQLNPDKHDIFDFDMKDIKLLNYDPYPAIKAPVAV
Procedure: as §1

Thymidylate synthase [5] = molecular target: T2, Thymidylate synthase (Pneumocystis carinii, UniProt P13100)
T2 sequence (P13100 whole entry): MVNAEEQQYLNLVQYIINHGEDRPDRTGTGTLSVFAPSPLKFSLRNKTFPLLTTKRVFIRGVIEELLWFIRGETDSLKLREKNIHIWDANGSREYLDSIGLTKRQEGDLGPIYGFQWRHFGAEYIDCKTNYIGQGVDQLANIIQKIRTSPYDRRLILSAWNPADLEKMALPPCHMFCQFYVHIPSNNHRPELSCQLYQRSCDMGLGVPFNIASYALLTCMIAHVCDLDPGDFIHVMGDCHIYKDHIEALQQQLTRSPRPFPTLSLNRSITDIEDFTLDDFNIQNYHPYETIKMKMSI
Procedure: as §1

Chain of Thymidylate synthase (Homo sapiens, UniProt P04818) (P04818 whole entry): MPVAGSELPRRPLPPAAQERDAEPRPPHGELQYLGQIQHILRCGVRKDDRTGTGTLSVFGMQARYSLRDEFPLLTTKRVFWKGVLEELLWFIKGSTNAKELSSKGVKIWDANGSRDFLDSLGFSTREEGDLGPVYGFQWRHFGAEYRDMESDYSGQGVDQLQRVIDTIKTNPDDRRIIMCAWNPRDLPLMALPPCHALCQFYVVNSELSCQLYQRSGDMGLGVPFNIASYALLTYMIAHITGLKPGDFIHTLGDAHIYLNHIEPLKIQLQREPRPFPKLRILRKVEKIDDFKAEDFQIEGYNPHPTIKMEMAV
Chain of Thymidylate synthase (Escherichia coli (strain K12), UniProt P0A884) (P0A884 whole entry): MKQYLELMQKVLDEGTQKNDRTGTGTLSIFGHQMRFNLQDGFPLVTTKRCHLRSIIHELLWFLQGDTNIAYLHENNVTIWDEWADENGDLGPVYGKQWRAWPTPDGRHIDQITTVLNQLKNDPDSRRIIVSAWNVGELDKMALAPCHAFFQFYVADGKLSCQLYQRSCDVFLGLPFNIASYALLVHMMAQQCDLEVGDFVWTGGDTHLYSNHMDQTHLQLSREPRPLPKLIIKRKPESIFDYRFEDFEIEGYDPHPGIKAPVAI
Chain of Bifunctional dihydrofolate reductase-thymidylate synthase (P07382 whole entry): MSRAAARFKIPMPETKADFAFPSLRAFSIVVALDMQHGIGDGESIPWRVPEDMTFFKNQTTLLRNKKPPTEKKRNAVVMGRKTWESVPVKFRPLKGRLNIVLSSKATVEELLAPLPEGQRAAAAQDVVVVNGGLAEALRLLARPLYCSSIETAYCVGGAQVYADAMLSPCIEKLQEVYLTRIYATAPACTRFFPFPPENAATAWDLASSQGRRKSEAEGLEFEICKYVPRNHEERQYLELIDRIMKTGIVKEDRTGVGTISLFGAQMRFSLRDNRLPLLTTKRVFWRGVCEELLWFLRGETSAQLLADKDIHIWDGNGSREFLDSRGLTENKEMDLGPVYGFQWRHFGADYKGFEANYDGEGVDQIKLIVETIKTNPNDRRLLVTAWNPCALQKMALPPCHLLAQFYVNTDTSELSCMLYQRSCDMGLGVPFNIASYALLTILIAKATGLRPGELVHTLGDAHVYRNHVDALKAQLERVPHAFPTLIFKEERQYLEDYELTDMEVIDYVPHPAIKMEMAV

Structure (SMILES) | Ki [1] | Ki (Thymidylate synthase [2]) | Ki (Thymidylate synthase [3]) | Ki (Thymidylate synthase [4]) | Ki (Thymidylate synthase [5])
O=C1OC(c2ccc(O)c(Cl)c2)(c2ccc(O)c(Cl)c2)c2cccc3cccc1c23 | > 1080 µM | – | – | – | –
C#CCN(Cc1ccc2nc(N)[nH]c(=O)c2c1)c1ccc(C(=O)N[C@@H](CCC(=O)O)C(=O)O)cc1 | 0.08 µM | – | – | – | –
O=C1OC(c2ccc(O)c(F)c2)(c2ccc(O)c(F)c2)c2cccc3cccc1c23 [Phenolnaphthalein derivative, 1] | > 1780 µM | – | – | – | –
O=C1OC(c2ccc(O)c(Br)c2)(c2ccc(O)c(Br)c2)c2ccc(Cl)c3cccc1c23 [Phenolnaphthalein derivative, 2] | > 1080 µM | 4.1 µM | > 245 µM | 0.8 µM | 28 µM
O=C1OC(c2ccc(O)c(F)c2)(c2ccc(O)c(F)c2)c2ccc(Cl)c3cccc1c23 [Phenolnaphthalein derivative, 3] | > 1080 µM | 1.1 µM | > 245 µM | 1.8 µM | 22 µM
O=C1OC(c2ccc(O)c(Br)c2)(c2ccc(O)c(Br)c2)c2c1ccc1ccccc21 [Phenolnaphthalein derivative, 4] | 63 µM | 0.9 µM | > 132 µM | – | > 132 µM
O=C1OC(c2cc(Br)c(O)c(Br)c2)(c2cc(Br)c(O)c(Br)c2)c2c1ccc1ccccc21 [Phenolnaphthalein derivative, 5] | 41 µM | – | > 245 µM | – | 32.7 µM
